Test results as given in patent publication US6841552B1, “3a,4,5,9b-tetrahydro-1H-benz[e]indol-2-yl amine-derived neuropeptide Y receptors ligands useful in the treatment of obesity and other disorders” (Ortho-McNeil Pharmaceutical, Inc., priority 1999, dated 2005).

Tests used:
[1] = target: T1, human neuropeptide Y5 receptor (Homo sapiens, UniProt Q15761); assay: NPY5 HTS centrifugation assay: competition with 125I-PYY for binding to membranes of NPY5-transfected HEK293 cells; details: for inhibition at 0.3 µM / % Inh @ 300 nM: % inhibition of 125I-PYY binding at 300 nM compound; for inhibition at 0.3 µM: read-out: % Inh @ 300 nM; for inhibition at 3 µM / % Inh @ 3 uM: % inhibition of 125I-PYY binding at 3 uM compound
T1 construct: expressed in transfected cells; membranes
T1 sequence (Q15761 1-445): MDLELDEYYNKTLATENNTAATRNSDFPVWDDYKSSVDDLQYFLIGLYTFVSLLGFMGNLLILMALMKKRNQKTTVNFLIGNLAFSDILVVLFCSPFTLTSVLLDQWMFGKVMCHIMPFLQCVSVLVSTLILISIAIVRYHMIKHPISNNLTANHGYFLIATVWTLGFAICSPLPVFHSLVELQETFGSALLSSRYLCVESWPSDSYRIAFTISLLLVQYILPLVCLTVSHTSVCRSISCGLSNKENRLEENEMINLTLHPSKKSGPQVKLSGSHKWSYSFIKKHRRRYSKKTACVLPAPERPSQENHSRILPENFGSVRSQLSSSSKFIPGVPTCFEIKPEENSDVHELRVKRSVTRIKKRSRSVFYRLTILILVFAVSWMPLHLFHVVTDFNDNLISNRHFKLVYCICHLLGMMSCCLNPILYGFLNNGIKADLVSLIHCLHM
Experimental: NPY5 HTS Centrifugation Assay
The compounds described in this invention were evaluated for binding to the human neuropeptide Y5 receptor.
The human NPY5 receptor cDNA (Genbank Accession number U66275) was inserted into the vector pClneo (Invitrogen) and transfected into human embryonic kidney cells (HEK-293) via calcium phosphate method (Cullen 1987). Stably transfected cells were selected with G-418 (600 μg/mL). Stably transfected cells served as the source for the membranes for the NPY5 receptor binding assay.
NPY5-transfected HEK293 cells were grown to confluence in 150 cm^2 culture dishes. Cells were washed once with phosphate-buffered saline (Gibco Cat# 14040-133). Cells were then incubated in phosphate-buffered saline without calcium and without magnesium, supplemented with 2 mM EDTA. Cells were incubated for 10 minutes at room temperature and the cells were collected by repetitive pipeting. Cells were formed into pellets and then frozen at −80° C. until needed. Frozen pellets were homogenized with a polytron at full speed for 12 seconds in a homogenization buffer (20 mM Tris HCl, 5 mM EDTA, pH 7.4). Homogenates were centrifuged for 5 minutes at 4° C. at 200 g. Supernatants were transferred to corex tubes and centrifuged for 25 minutes at 28,000 g. Pellets were re-suspended in Binding (20 mM HEPES, 10 mM NaCl, 0.22 mM KH2PO4, 1.3 mM CaCl2, 0.8 mM MgSO4, pH 7.4). Membranes were kept on ice until use.
A competition binding assay, known to those skilled in the art, was used in which compounds of formula A compete with ^125I-PYY for binding to cell membranes. In simple terms, the less ^125I-PYY bound to the membranes implies that a compound is a good inhibitor (competitor). Bound ^125I-PYY is determined by centrifugation of membranes, aspirating supernatant, washing away residual ^125I-PYY and subsequently counting the bound sample in a gcounter.
Compounds to be tested were prepared as 10× stocks in binding buffer and added first to assay tubes (RIA vials, Sarstedt). Twenty (20) μL of each 10× compound stock is pipeted into vials and 80 μL of ^125I-PYY (NEN catalog number NEX240), which has been diluted to a concentration of 200 pM in 0.25% BSA in binding buffer, is added to the compound tubes (final concentration of ^125I-PYY is 80 pM). To each tube is added 100 μL of membranes and the mixture is agitated by pipeting 2 times. Samples are incubated for 1 hr at room temperature. Aluminum cast plates (Sarstedt) containing the vials are then centrifuged 10 minutes at 3200 rpm in a Sorvall RT6000. Supernatant is then aspirated. To each vial 400 μL PBS is added and this is then aspirated again. Vials are then put in carrier polypropylene 12×75 tube and counted in gamma counter (Packard). Non-specific binding is determined in the presence of 300 nM NPY. Percent inhibition of ^125I-PYY binding is calculated by subtracting non-specific binding from the test samples (compound (I)), taking these counts and dividing by total binding, and multiplying by 100. Inhibitory concentration values (IC50) of compounds that show appreciable inhibition of ^125I-PYY binding are calculated by obtaining percent inhibition of ^125I-PYY binding values at different concentrations of the test compound, and using a graphing program such as GraphPad Prism (San Diego, Calif.) to calculate the concentration of test compound that inhibits fifty-percent of ^125I-PYY binding (Table 4).

Food-Deprived Rats = assay: Rodent feeding model: measurement of food intake in food-deprived rats; type: in vivo, Male Long-Evans rats; details: 10 mg/kg i.p.
From the text: Measurement of Food Intake in Food-Deprived Rats
Male Long-Evans rats (180-200 grams) are housed individually and are maintained on once-a-day feeding schedule (i.e., 10 a.m. until 4 p.m.) for five days following quarantine to allow the animals to acclimate to feeding on powdered chow (#5002 PMI Certified Rodent Meal) during the allotted time. The chow is made available in a open jar, anchored in the cage by a wire, with a metal follower covering the food to minimize spillage. Water is available ad-libitum.
Animals are fasted for 18 hours prior to testing. At the end of the fasting period, animal are administered either compounds of the invention or vehicle. Vehicle and test compounds are administered either orally (5 mL/kg) 60 minutes prior to the experiment, or 30 minutes prior when given subcutaneously (1 mL/kg) or intraperitoneally (1 mL/kg). Compounds of the invention are administered orally as a suspension in aqueous 0.5% methylcellulose-0.4% Tween 80, or intraperitoneally as a solution or suspension in PEG 200; compound concentrations typically range from 1 mg/kg to 100 mg/kg, preferably from 10-30 mg/kg. Food intake is measured at 2, 4, and 6 hours after administration by weighing the special jar containing the food before the experiment and at the specified times. Upon completion of the experiment, all animals are given a one-week washout period before retesting.
Percent reduction of food consumption is calculated subtracting the grams of food consumed by the treated group from the grams of food consumed by the control group divided by the grams of food consumed by the control group, multiplied by 100. A negative value indicates a reduction in food consumption and a positive value indicates an increase in food consumption. [formula]

Question: O=C(NC1=N[C@H]2CCc3cc(Cl)ccc3[C@H]2C1)[C@H]1CC[C@H](CNS(=O)(=O)c2ccccc2)CC1 (relative stereo) [Compound 17, trans-4-[[(Phenylsulfonyl)amino]methyl]-N-(cis-3a,4,5,9b-tetrahydro-7chloro-1H-benz[e]indol-2-yl)cyclohexanecarboxamide] was tested. Which inhibition at 0.3 µM [1] did it give?
Answer: 86%

Question: What about the inhibition at 3 µM [1] of the same compound?
Answer: 107%

Question: O=S(=O)(NC[C@H]1CC[C@H](CNC2=N[C@H]3CCc4cc(Cl)ccc4[C@H]3C2)CC1)c1ccccc1 (relative stereo) [Compound 18, N-[[trans-4-[[(cis-3a,4,5,9b-tetrahydro-7-chloro-1H-benz[e]indol-2-yl)amino]methyl]cyclohexyl]methyl]benzenesulfonamide] was tested. Which inhibition at 0.3 µM [1] did it give?
Answer: 90%

Question: And the inhibition at 3 µM [1]?
Answer: 109%

Question: How did the inhibition at 0.3 µM [1] turn out when COc1ccc2c(c1)CC[C@@H]1N=C(NC[C@H]3CC[C@H](CNS(=O)(=O)c4ccccc4)CC3)C[C@H]21 (relative stereo) [Compound 8, N-[[trans-4-[[(cis-3a,4,5,9b-tetrahydro-7-methoxy-1H-benz[e]indol-2-yl)amino]methyl]cyclohexyl]methyl]benzenesulfonamide] was run?
Answer: 85%

Question: And the inhibition at 3 µM [1]?
Answer: 98%

Question: And the “Food Consumption (avg. grams) 0-2 h” value (Food-Deprived Rats; 0-2 h, 18 h fasted rats)?
Answer: 4.38 g

Question: What about the “Food Consumption 0-2 h (% chg.)” value (Food-Deprived Rats; 0-2 h, change vs vehicle, negative = reduction) of the same compound?
Answer: (−52%)

Question: And the “Food Consumption (avg. grams) 0-4 h” value (Food-Deprived Rats; 0-4 h, 18 h fasted rats)?
Answer: 7.88 g

Question: What about the “Food Consumption 0-4 h (% chg.)” value (Food-Deprived Rats; 0-4 h, change vs vehicle, negative = reduction) of the same compound?
Answer: (−38%)

Question: What about the “Food Consumption (avg. grams) 0-6 h” value (Food-Deprived Rats; 0-6 h, 18 h fasted rats) of the same compound?
Answer: 12.00 g

Question: What about the “Food Consumption 0-6 h (% chg.)” value (Food-Deprived Rats; 0-6 h, change vs vehicle, negative = reduction) of the same compound?
Answer: (−43%)

Question: And the “Food Consumption (avg. grams) 2-6 h” value (Food-Deprived Rats; 2-6 h, 18 h fasted rats)?
Answer: 7.63 g

Question: What about the “Food Consumption 2-6 h (% chg.)” value (Food-Deprived Rats; 2-6 h, change vs vehicle, negative = reduction) of the same compound?
Answer: (−37%)

Question: Which inhibition at 0.3 µM [1] does the source give for O=C(NC1=N[C@H]2CCc3cc(O)ccc3[C@H]2C1)[C@H]1CC[C@H](CNS(=O)(=O)c2ccccc2)CC1 (relative stereo) [Compound 9, trans-4-[[(Phenylsulfonyl)amino]methyl]-N-(cis-3a,4,5,9b-tetrahydro-7-hydroxy-1H-benz[e]indol-2-yl)cyclohexanecarboxamide] here?
Answer: 97%

Question: And the inhibition at 3 µM [1]?
Answer: 97%

Question: COc1ccc2c(c1)CC[C@@H]1N=C(NC(=O)[C@H]3CC[C@H](CNS(=O)(=O)c4ccccc4)CC3)C[C@H]21 (relative stereo) [Compound 7, trans-4-[[(Phenylsulfonyl)amino]methyl]-N-(cis-3a,4,5,9b-tetrahydro-7-methoxy-1H-benz[e]indol-2-yl)cyclohexanecarboxamide] was tested. Which “% Inh @ 300 nM” value ([1]; 0.3 µM) did it give?
Answer: 82%

Question: And the “% Inh @ 3 uM” value ([1]; 3 µM)?
Answer: 98%

Question: Which results are given for O=S(=O)(NC[C@H]1CC[C@H](CNC2=N[C@H]3CCc4ccccc4[C@H]3C2)CC1)c1ccccc1 (relative stereo) [Compound 14, N-[[trans-4-[[(cis-3a,4,5,9b-tetrahydro-1 H-benz[e]indol-2-yl)amino]methyl]cyclohexyl]methyl]benzenesulfonamide]?
Answer: inhibition at 0.3 µM [1]: 89%; inhibition at 3 µM [1]: 93%

Question: For O=S(=O)(NC[C@H]1CC[C@H](CNC2=N[C@H]3CCc4cc(F)ccc4[C@H]3C2)CC1)c1ccccc1 (relative stereo) [Compound 16, N-[[trans-4-[[(cis-3a,4,5,9b-tetrahydro-7-fluoro-1H-bnz[ ]indol-2-yl)amino]methyl]cyclohexyl]methyl]benzenesulfonamide], which “% Inh @ 300 nM” value [1] is on record?
Answer: 76%

Question: What about the “% Inh @ 3 uM” value [1] of the same compound?
Answer: 100%

Question: What does the source list for COc1ccc2c(c1)CCC1NC(N)(C(=O)CN3CCC(n4c(=O)[nH]c5ccccc54)CC3)CC21 (stereo not drawn) [Compound 20, 2-[[4-(2,3-Dihydro-2-oxo-1H-benzimidazol-1-yl)-1-piperidinyl]acetyl]-[3a,4,5,9b-tetrahydro-7-methoxy-1H-benzo[e]indol-2-yl]-amine]?
Answer: inhibition at 0.3 µM [1]: 0%; inhibition at 3 µM [1]: 50%

Question: Which inhibition at 0.3 µM [1] does the source give for O=C(NC1=N[C@H]2CCc3cc(F)ccc3[C@H]2C1)[C@H]1CC[C@H](CNS(=O)(=O)c2ccccc2)CC1 (relative stereo) [Compound 15, trans-4-[[(Phenylsulfonyl)amino]methyl]-N-(cis-3a,4,5,9b-tetrahydro-7-fluoro-1H-benz[e]indol-2-yl)cyclohexanecarboxamide] here?
Answer: 89%

Question: What about the inhibition at 3 µM [1] of the same compound?
Answer: 100%

Question: Which “% Inh @ 300 nM” value [1] does the source give for COc1ccc2c(c1)CCC1N=C(NCCN3CCC(n4c(=O)[nH]c5ccccc54)CC3)CC21 (stereo not drawn) [Compound 12] here?
Answer: 9%

Question: And the “% Inh @ 3 uM” value [1]?
Answer: 53%

Question: Which inhibition at 0.3 µM [1] does the source give for NC1(C(=O)CN2CCC(n3c(=O)[nH]c4ccccc43)CC2)CC2c3ccc(O)cc3CCC2N1 (stereo not drawn) [Compound 21, 2-[[4-(2,3-Dihydro-2-oxo-1H-benzimidazol-1-yl)-1-piperidinyl]acetyl]-[3a,4,5,9b-tetrahydro-7-hydroxy-1H-benzo[e]indol-2-yl]-amine] here?
Answer: 20%

Question: And the inhibition at 3 µM [1]?
Answer: 78%

Question: Which inhibition at 0.3 µM [1] does the source give for O=C(NC1=N[C@H]2CCc3ccccc3[C@H]2C1)[C@H]1CC[C@H](CNS(=O)(=O)c2ccccc2)CC1 (relative stereo) [Compound 13, trans-4-[[(Phenylsulfonyl)amino]methyl]-N-(cis-3a,4,5,9b-tetrahydro-1H-benz[e]indol-2-yl)cyclohexanecarboxamide] here?
Answer: 80%

Question: And the inhibition at 3 µM [1]?
Answer: 100%

Question: What does the source list for COc1ccc2c(c1)CC[C@@H]1N=C(NC(=O)[C@H]3CC[C@H](CNS(=O)(=O)c4ccccc4)CC3)C[C@H]21 (relative stereo) [Compound 19, trans-4-[[(Phenylsulfonyl)amino]methyl]-N-(cis-3a,4,5,9b-tetrahydro-7-methoxy-1H-benz[e]indol-2-yl)cyclohexanecarboxamide]?
Answer: inhibition at 0.3 µM [1]: 80%; inhibition at 3 µM [1]: 99%

Question: How did the inhibition at 0.3 µM [1] turn out when O=C(CN1CCC(n2c(=O)[nH]c3ccccc32)CC1)NC1=N[C@@H]2CCc3ccccc3[C@@H]2C1 [Compound 11] was run?
Answer: 48%

Question: And the inhibition at 3 µM [1]?
Answer: 85%
